Measurements taken from ChEMBL document CHEMBL1949658, “3D-QSAR and 3D-QSSR models of negative allosteric modulators facilitate the design of a novel selective antagonist of human α4β2 neuronal nicotinic acetylcholine receptors” (Bioorg Med Chem Lett, 2012).

What was measured:
[1] = molecular target: Neuronal acetylcholine receptor; alpha4/beta2 (Homo sapiens, UniProt P17787+P43681); experiment: Antagonist activity at human nAChR alpha4/beta2 receptor expressed in HEK ts201 cells assessed as calcium accumulation by fluorescence analysis; type: functional, cell-based
[2] = molecular target: Neuronal acetylcholine receptor; alpha3/beta4 (Homo sapiens, UniProt P30926+P32297); experiment: Antagonist activity at human nAChR alpha3/beta4 receptor expressed in HEK ts201 cells assessed as calcium accumulation by fluorescence analysis; type: functional, cell-based
[3] = species: Homo sapiens; experiment: Selectivity ratio of pIC50 for human nAChR alpha3/beta4 receptor to pIC50 for human nAChR alpha4/beta2 receptor

Neuronal acetylcholine receptor; alpha3/beta4, sequence (P30926 whole entry): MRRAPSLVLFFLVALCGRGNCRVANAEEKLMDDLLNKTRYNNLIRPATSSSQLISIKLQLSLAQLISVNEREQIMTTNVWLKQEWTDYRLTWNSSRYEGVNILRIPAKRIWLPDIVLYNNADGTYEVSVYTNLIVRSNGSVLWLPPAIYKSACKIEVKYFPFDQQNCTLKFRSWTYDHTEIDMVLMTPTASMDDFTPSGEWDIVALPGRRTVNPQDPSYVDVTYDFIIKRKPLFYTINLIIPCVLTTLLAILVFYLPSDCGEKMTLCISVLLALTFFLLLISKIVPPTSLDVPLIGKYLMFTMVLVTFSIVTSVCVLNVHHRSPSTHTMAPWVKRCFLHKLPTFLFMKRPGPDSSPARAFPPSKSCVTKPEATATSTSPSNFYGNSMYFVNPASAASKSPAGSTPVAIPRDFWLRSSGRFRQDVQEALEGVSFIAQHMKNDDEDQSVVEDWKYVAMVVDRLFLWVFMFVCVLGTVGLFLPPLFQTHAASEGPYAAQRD
Neuronal acetylcholine receptor; alpha3/beta4, sequence (P32297 whole entry): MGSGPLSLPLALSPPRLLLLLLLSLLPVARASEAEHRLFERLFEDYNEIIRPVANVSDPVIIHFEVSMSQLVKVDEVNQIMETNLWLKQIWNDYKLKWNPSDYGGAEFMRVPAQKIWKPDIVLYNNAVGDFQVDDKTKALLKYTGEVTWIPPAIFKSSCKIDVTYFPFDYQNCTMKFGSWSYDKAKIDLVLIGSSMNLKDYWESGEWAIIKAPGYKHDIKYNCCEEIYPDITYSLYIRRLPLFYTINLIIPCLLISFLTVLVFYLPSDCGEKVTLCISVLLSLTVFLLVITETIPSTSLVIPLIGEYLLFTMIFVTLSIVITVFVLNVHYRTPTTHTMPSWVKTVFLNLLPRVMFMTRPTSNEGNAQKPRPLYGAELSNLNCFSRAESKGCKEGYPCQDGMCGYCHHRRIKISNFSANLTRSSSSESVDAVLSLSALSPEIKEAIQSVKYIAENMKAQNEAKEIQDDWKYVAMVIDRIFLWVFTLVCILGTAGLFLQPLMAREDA
Neuronal acetylcholine receptor; alpha4/beta2, sequence (P17787 whole entry): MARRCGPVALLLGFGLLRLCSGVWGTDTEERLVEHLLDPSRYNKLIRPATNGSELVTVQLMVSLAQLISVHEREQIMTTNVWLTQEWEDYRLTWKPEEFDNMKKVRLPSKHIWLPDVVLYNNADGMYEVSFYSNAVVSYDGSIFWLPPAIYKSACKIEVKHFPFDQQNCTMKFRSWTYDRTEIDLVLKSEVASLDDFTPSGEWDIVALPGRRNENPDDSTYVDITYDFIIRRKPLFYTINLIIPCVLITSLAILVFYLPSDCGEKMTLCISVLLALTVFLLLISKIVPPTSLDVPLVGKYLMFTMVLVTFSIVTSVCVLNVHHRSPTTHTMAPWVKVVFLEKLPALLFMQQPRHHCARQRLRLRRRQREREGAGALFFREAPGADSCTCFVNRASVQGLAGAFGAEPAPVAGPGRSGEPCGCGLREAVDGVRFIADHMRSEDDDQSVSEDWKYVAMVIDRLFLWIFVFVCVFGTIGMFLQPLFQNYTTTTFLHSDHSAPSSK
Neuronal acetylcholine receptor; alpha4/beta2, sequence (P43681 whole entry): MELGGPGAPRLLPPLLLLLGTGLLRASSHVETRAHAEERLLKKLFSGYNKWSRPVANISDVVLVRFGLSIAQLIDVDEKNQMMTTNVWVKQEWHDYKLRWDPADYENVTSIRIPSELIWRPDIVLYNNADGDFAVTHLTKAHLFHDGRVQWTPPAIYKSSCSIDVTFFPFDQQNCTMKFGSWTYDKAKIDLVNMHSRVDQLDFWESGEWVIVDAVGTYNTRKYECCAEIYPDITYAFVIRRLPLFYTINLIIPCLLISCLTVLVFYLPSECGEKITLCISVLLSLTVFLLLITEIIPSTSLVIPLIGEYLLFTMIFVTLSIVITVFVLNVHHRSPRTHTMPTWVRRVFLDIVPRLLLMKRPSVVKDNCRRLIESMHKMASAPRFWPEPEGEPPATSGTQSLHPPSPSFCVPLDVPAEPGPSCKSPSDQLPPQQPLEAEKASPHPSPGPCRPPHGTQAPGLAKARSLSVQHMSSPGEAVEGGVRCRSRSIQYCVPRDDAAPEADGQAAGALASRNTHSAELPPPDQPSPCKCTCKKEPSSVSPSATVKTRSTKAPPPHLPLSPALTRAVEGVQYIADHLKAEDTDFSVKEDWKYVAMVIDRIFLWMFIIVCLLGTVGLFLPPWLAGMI

Row | SMILES | IC50 ([1]; read-out: pIC50 (converted)) [µM] | IC50 ([2]; read-out: pIC50 (converted)) [µM] | Ratio pIC50 [3] | IC50 ([1]; read-out: IC50) [µM] | IC50 ([2]; read-out: IC50) [µM]
1 | O=C(CCc1ccccc1)N1CCCC(CN(Cc2ccccc2-c2ccccc2)Cc2ccccc2-c2ccccc2)C1 (stereo unspecified) | 20.9 | 40.7 | 0.29 |  | 
2 | O=C(OCC1CCCN(CCCc2ccccc2)C1)c1ccccc1-c1cccc2ccccc12 (stereo unspecified) |  |  | 0.73 |  | 
3 | COc1ccccc1C(=O)OCC1CCCN(CCCc2ccccc2)C1 (single isomer, unassigned) | 7.94 | 12 | 0.19 |  | 
4 | O=C(OCC1CCCN(C(=O)CCc2ccccc2)C1)c1ccccc1-c1ccccc1 (stereo unspecified) | 6.03 | 331 | 1.74 | 5.6 | > 100
5 | O=C(NCc1ccccc1-c1ccccc1)C1CCCN(CCCc2ccccc2)C1 (single isomer, unassigned) | 16.6 | 14.5 | -0.06 |  | 
6 | COc1ccc(CC2CC(=O)N(c3ccccc3C(=O)OCC3CCCN(CCCc4ccccc4)C3)C2=O)cc1 (stereo unspecified) | 38.9 | 28.8 | -0.13 |  | 
7 | CC1CC(=O)N(c2ccccc2C(=O)OC2CN(CCCc3ccccc3)C3CC2C2OC(C)(C)OC23)C1=O (stereo unspecified) |  | 30.9 |  |  | 
8 | COc1ccc(OCCCCCN2CCCC(COC(=O)c3ccccc3N3C(=O)CC(C)C3=O)C2)cc1 (stereo unspecified) | 14.5 |  |  |  | 
9 | COc1ccc(OCCCCCN2CCCC(COC(=O)c3cc(=O)c4ccccc4o3)C2)cc1 (stereo unspecified) | 10.2 |  |  |  | 
10 | CC(C)N1CC(OC(=O)c2ccccc2-c2ccccc2)C2CC1C1OC(C)(C)OC21 (stereo unspecified) | 9.55 |  |  |  | 
11 | COc1ccc(OCCN2CCCC(COC(=O)c3ccccc3N3C(=O)CC(C)C3=O)C2)cc1 (stereo unspecified) | 66.1 | 12 | -0.75 |  | 
12 | C[N+]1(C)CCCC(COC(=O)c2ccccc2-c2ccccc2)C1 (single isomer, unassigned) | 2.4 | 6.46 | 0.43 |  | 
13 | O=C(OCC1CCCN(CCCc2ccccc2)C1)c1ccc(-c2ccccc2)cc1 (stereo unspecified) | 6.31 | 18.6 | 0.47 |  | 
14 | c1ccc(CCCN2CCCC(COCc3cn(Cc4ccccc4-c4ccccc4)nn3)C2)cc1 (stereo unspecified) | 2.88 | 7.24 | 0.39 |  | 
15 | O=C(OCC1CCCN(CCCCCOc2ccc(Cl)cc2)C1)c1ccccc1-c1ccccc1 (stereo unspecified) | 14.5 | 15.5 | 0.02 |  | 
16 | O=C(OCC1CCCN(CCCc2ccccc2)C1)c1ccccc1C(F)(F)F (single isomer, unassigned) |  |  | -0.16 | 8 | 5.5
17 | O=C(OCC1CCCNC1)c1ccccc1-c1ccccc1 (single isomer, unassigned) | 7.08 | 8.13 | 0.06 |  | 
18 | C[C@H]1CC(=O)N(c2ccccc2C(=O)OC[C@H]2CCCN(CCCc3ccccc3)C2)C1=O | 10.5 | 11 | 0.02 |  | 
19 | O=C(OCC1CCCN(CCCc2ccccc2)C1)c1ccccc1N1C(=O)c2ccccc2C1=O (single isomer, unassigned) | 5.01 | 5.89 | 0.07 |  | 
20 | COc1ccc(OCCCCCN2CCCC(COC(=O)c3ccccc3N3C(=O)CC(C)C3=O)C2)cc1OC (stereo unspecified) | 8.32 | 2000 | 2.38 |  | 
21 | [N-]=[N+]=NCCCN1CCCC(COC(=O)c2ccccc2-c2ccccc2)C1 (single isomer, unassigned) | 4.27 | 1.82 | -0.38 |  | 
22 | O=C(NCC1CCCN(CCCc2ccccc2)C1)c1ccccc1-c1ccccc1 (single isomer, unassigned) | 20 |  | 3.7 |  | 

Row | SMILES | IC50 ([1]; read-out: pIC50 (converted)) [µM] | IC50 ([2]; read-out: pIC50 (converted)) [µM] | Ratio pIC50 [3] | IC50 ([1]; read-out: IC50) [µM] | IC50 ([2]; read-out: IC50) [µM]
23 | CCN1CC(OC(=O)c2ccccc2N2C(=O)CC(C)C2=O)C2CC1C1OC(C)(C)OC21 (stereo unspecified) | 12 | 77.6 | 0.81 |  | 
24 | O=C(CCC1CCCNC1)c1ccccc1-c1ccccc1 (stereo unspecified) | 9.12 | 6.61 | -0.14 |  | 
25 | CC1CC(=O)N(c2ccccc2C(=O)OC[C@@H]2C[C@H](c3ccccc3)CN(CCCc3ccccc3)C2)C1=O (stereo partly specified) | 5.37 |  |  |  | 
26 | O=C(OCC1CCCN(CCCc2ccccc2)C1)c1ccccc1-n1cc(-c2ccccc2)nn1 (single isomer, unassigned) | 2.82 | 4.27 | 0.19 |  | 
27 | O=C(OCc1ccccc1-c1ccccc1)C1CCCN(CCCc2ccccc2)C1 (single isomer, unassigned) | 17.8 | 10.2 | 0.24 |  | 
28 | CC1CC(=O)N(c2ccccc2C(=O)OCC2CCCN(CCCCOc3ccccc3)C2)C1=O (stereo unspecified) | 1.7 |  |  |  | 
29 | O=C(OCC1CCN(CCCc2ccccc2)CC1)c1ccccc1-c1ccccc1 |  |  | 0.11 | 8.1 | 10.5
30 | CC1(C)CC(=O)N(c2ccccc2C(=O)OCC2CCCN(CCCc3ccccc3)C2)C1=O (single isomer, unassigned) | 4.9 | 5.01 | 0.01 |  | 
31 | O=C(OCC1CCCN(CCCc2ccccc2)C1)c1ccccc1Cl (single isomer, unassigned) | 9.33 | 22.9 | 0.39 |  | 
32 | CC1CC(=O)N(c2ccccc2C(=O)OCC2CCCN(CCCCCCc3ccccc3)C2)C1=O (stereo unspecified) | 29.5 |  |  |  | 
33 | COc1ccc(OCCCCCN2CCCC(COC(=O)c3ccccc3-c3ccccc3)C2)cc1 (stereo unspecified) | 14.5 | 22.4 |  |  | 
34 | CC(C)N1CCCC(COC(=O)c2ccccc2N2C(=O)CC(Cc3ccccc3)C2=O)C1 (stereo unspecified) | 8.91 |  |  |  | 
35 | CC(=O)Nc1ccccc1C(=O)OCC1CCCN(CCCc2ccccc2)C1 (stereo unspecified) | 5.5 | 4.27 | -0.11 |  | 
36 | CC1(C)OC2C3CC(C2O1)N(CCCc1ccccc1)CC3OC(=O)c1ccccc1-c1ccccc1 (stereo unspecified) | 11.5 | 13.8 | 0.08 |  | 
37 | CC1CC(=O)N(c2ccccc2C(=O)OCC2CCCN(CCCCCOc3ccccc3)C2)C1=O (stereo unspecified) | 17 |  |  |  | 
38 | CC1CC(=O)N(c2ccccc2C(=O)OCC2CCCN(CCOc3cccc(Cl)c3)C2)C1=O (stereo unspecified) | 21.9 | 11.5 | 0.14 |  | 
39 | Cc1ccc(OCCN2CCCC(COC(=O)c3ccccc3N3C(=O)CC(C)C3=O)C2)cc1 (stereo unspecified) | 11.2 | 18.6 | 0.22 |  | 
40 | O=C(OC1CCCN(CCCc2ccccc2)C1)c1ccccc1-c1ccccc1 (single isomer, unassigned) |  |  |  | 6.5 | 2.7
41 | CC1CC(=O)N(c2ccccc2C(=O)CCC2CCCN(CCCCOc3ccc(C(F)(F)F)cc3)C2)C1=O (stereo unspecified) | 7.08 |  |  |  | 
42 | COc1cccc(OCCCCCN2CCCC(COC(=O)c3ccccc3N3C(=O)CC(C)C3=O)C2)c1OC (stereo unspecified) | 8.71 |  |  |  | 
43 | O=C(OCC1CCCN(CCCc2ccccc2)C1)c1ccccc1N1C(=O)CC(CCc2ccccc2)C1=O (stereo unspecified) | 5.13 | 33.1 | 0.81 |  | 
44 | CC1CC(=O)N(c2ccccc2C(=O)OCC2CCCN(CCOc3ccc(Cl)c(Cl)c3)C2)C1=O (stereo unspecified) | 15.1 | 17.4 | 0.06 |  | 

Row | SMILES | IC50 ([1]; read-out: pIC50 (converted)) [µM] | IC50 ([2]; read-out: pIC50 (converted)) [µM] | Ratio pIC50 [3] | IC50 ([1]; read-out: IC50) [µM] | IC50 ([2]; read-out: IC50) [µM]
45 | CO[C@@H]1C[C@H](OC)C[C@@H](OCCN2CCCC(COC(=O)c3ccccc3N3C(=O)CC(C)C3=O)C2)C1 (stereo partly specified) | 12.6 | 41.7 | 0.68 |  | 
46 | C[C@@H]1CC(=O)N(c2ccccc2C(=O)OC[C@@H]2CCCN(CCCc3ccccc3)C2)C1=O | 8.91 | 9.55 | 0.02 |  | 
47 | CC1CC(=O)N(c2ccccc2C(=O)OC2CN(C(C)C)C3CC2C2OC(C)(C)OC23)C1=O (stereo unspecified) | 7.59 |  |  |  | 
48 | CC1CC(=O)N(c2ccccc2C(=O)OCC2CCCN(CCCCCc3ccccc3)C2)C1=O (stereo unspecified) | 24.5 | 4.17 | -0.77 |  | 
49 | CN1CCCC(COC(=O)c2ccccc2-c2ccccc2)C1 (single isomer, unassigned) | 6.92 | 4.79 | -0.16 |  | 
50 | CC1CC(=O)N(c2ccccc2C(=O)OCC2CCCN(CCOc3cccc(-c4ccccc4)c3)C2)C1=O (stereo unspecified) | 7.24 | 26.9 | 0.57 |  | 
51 | CCN1CCCC(COC(=O)c2ccccc2N2C(=O)CC(Cc3ccccc3)C2=O)C1 (stereo unspecified) | 4.47 | 11.7 | 0.42 |  | 
52 | CC1CC(=O)N(c2ccccc2C(=O)OC[C@@H]2C[C@H](C3CCCCC3)CN(CCCc3ccccc3)C2)C1=O (stereo partly specified) | 39.8 | 85.1 | 0.33 |  | 
53 | CC1CC(=O)N(c2ccccc2C(=O)OCC2CCCN(CCOc3cccc4ccccc34)C2)C1=O (stereo unspecified) | 3.89 | 15.8 | 0.61 |  | 
54 | CC1CC(=O)N(c2ccccc2C(=O)OCC2CCCN(CCOc3ccc4ccccc4c3)C2)C1=O (stereo unspecified) | 7.41 | 6.76 | -0.04 |  | 
55 | CC1CC(=O)N(c2ccccc2C(=O)OCC2CCCN(CCCCOc3ccc(Cl)c(Cl)c3)C2)C1=O (stereo unspecified) | 12.3 | 74.1 | 0.78 |  | 
56 | CC1CC(=O)N(c2ccccc2C(=O)OCC2CCCN(CCc3c[nH]c4ccccc34)C2)C1=O (stereo unspecified) | 5.62 | 74.1 | 1.12 |  | 
57 | O=C(OCC1=CCCN(CCCc2ccccc2)C1)c1ccccc1N1C(=O)CC(Cc2ccccc2)C1=O (stereo unspecified) | 5.13 | 3.72 | -0.14 |  | 
58 | c1ccc(CCCN2CCCC(COCc3ccccc3-c3ccccc3)C2)cc1 (stereo unspecified) | 12.6 | 15.5 | 0.09 |  | 
59 | O=C(OCC1CCCN(CCc2ccccc2)C1)c1ccccc1N1C(=O)CC(Cc2ccccc2)C1=O (stereo unspecified) | 4.47 | 11.7 | 0.42 |  | 
60 | c1ccc(-c2ccccc2COCC2CCCNC2)cc1 (stereo unspecified) | 4.17 |  |  |  | 
61 | O=C(OCC1CCCN(CCCc2ccccc2)C1)c1ccccc1N1C(=O)CC(Cc2ccc(Cl)cc2)C1=O (stereo unspecified) | 10.7 | 14.5 | 0.14 |  | 
62 | O=C(OCC1CCCN(CCCn2cc(-c3ccccc3)nn2)C1)c1ccccc1-c1ccccc1 (single isomer, unassigned) | 6.46 | 389 | 1.78 |  | 
63 | CC1CC(=O)N(c2ccccc2C(=O)OCC2CCCN(CCCCCOc3ccc(Cl)c(Cl)c3)C2)C1=O (stereo unspecified) | 17.4 | 9.12 | -0.28 |  | 
64 | COc1ccc(OCCCCCN2CCCC(COC(=O)c3coc4ccccc4c3=O)C2)cc1 (stereo unspecified) | 10 |  |  |  | 
